Drawing on PubChem BioAssay (NCI), this text covers TGI for 14 compounds.

Among the test systems are UO-31 renal; PC-3 prostate; SR leukemia; A498 renal; A549 NSCLC; RPMI-8226 leukemia; SW-620 colon; ACHN renal; MALME-3M melanoma; HCC-2998 colon.
What all share (experiment): NCI tumour cell line growth inhibition, 48 h

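Compound exposure: 48 hours, 5 concentrations, 96-well plates. TGI marks complete inhibition of growth.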

Regarding `Nc1nc2c(=O)c3ccccc3sc2s1`, the TGI in the assay on UO-31 renal, in the assay on PC-3 prostate, in the assay on SR leukemia, in the assay with A498 renal, with A549 NSCLC and with RPMI-8226 leukemia was more than 100 µM each time. Besides, the TGI in the assay on SW-620 colon and in the assay on ACHN renal was more than 100 µM each time.

For the compound `C=CCNC(=S)Nc1sc2c(c1C(=O)OCC)CC(C)CC2` (stereo unspecified), the TGI is 56.3 µM in the assay with UO-31 renal; 50 µM with PC-3 prostate; 53.6 µM in the assay on SR leukemia; 60.8 µM in the assay with A549 NSCLC; 45.8 µM with MALME-3M melanoma; 68.6 µM in the assay on RPMI-8226 leukemia. The TGI is more than 100 µM with SW-620 colon, 53.6 µM in the assay on ACHN renal and 44.1 µM with HCC-2998 colon.

As for `C/C=C/[C@@]1(OC(=O)c2ccccc2)C[C@@H]2CCCC[C@@H]21`, the TGI in the assay on UO-31 renal is 22.9 µM; in the assay with PC-3 prostate it was 37 µM; in the assay with SR leukemia, 37.9 µM; in the assay on A549 NSCLC, 36.7 µM; in the assay with MALME-3M melanoma, 35.3 µM; in the assay with RPMI-8226 leukemia, 38.5 µM. In addition, the TGI with SW-620 colon worked out at 48.3 µM; with ACHN renal it was 31.5 µM; in the assay on HCC-2998 colon, 44.3 µM.

`CC1=NN(C(=O)CSc2nnc(SCC(=O)N3N=C(C)CC3(O)c3ccccc3)s2)C(O)(c2ccccc2)C1` (stereo unspecified): the TGI in the assay with UO-31 renal, in the assay with PC-3 prostate, in the assay with SR leukemia, in the assay on A498 renal, in the assay with A549 NSCLC and with MALME-3M melanoma was more than 100 µM each time. Moreover, the TGI in the assay on RPMI-8226 leukemia, in the assay with SW-620 colon, with ACHN renal and with HCC-2998 colon was more than 100 µM throughout.

`O=c1[nH]c(=O)n(C2CC(O)C(CO)O2)cc1I` (stereo unspecified): the TGI in the assay on UO-31 renal, in the assay with PC-3 prostate, in the assay with SR leukemia, in the assay on A498 renal, in the assay on A549 NSCLC and in the assay with MALME-3M melanoma was more than 100 µM throughout. The TGI with RPMI-8226 leukemia, with SW-620 colon, with ACHN renal and in the assay with HCC-2998 colon was more than 100 µM throughout.

For the compound `O=C1c2ccccc2C2CNC1(O)c1ccccc12` (stereo unspecified), the TGI in the assay with UO-31 renal, in the assay on PC-3 prostate, with SR leukemia, in the assay with A498 renal, in the assay with A549 NSCLC and in the assay with MALME-3M melanoma was more than 100 µM in each case. The TGI with RPMI-8226 leukemia, in the assay on SW-620 colon, in the assay with ACHN renal and with HCC-2998 colon was more than 100 µM each time.

Consider `CC(C)(C)OC(=O)CN1CCNCCNCC1`, for which the TGI in the assay with UO-31 renal, in the assay with PC-3 prostate, in the assay on SR leukemia, with A498 renal, in the assay on A549 NSCLC and in the assay with MALME-3M melanoma was more than 100 µM each time. Moreover, the TGI in the assay on RPMI-8226 leukemia, in the assay on SW-620 colon and with ACHN renal was more than 100 µM each time.

Consider `O=C(O)c1ccccc1.[Ag]`, for which the TGI was 7.17 µM in the assay with UO-31 renal; 29.8 µM with PC-3 prostate; more than 100 µM in the assay with SR leukemia; 36.8 µM with A498 renal; more than 58.7 µM in the assay on A549 NSCLC; 3.25 µM in the assay on MALME-3M melanoma. In addition, the values for the TGI with RPMI-8226 leukemia, in the assay on ACHN renal and in the assay with HCC-2998 colon were more than 23.5 µM, 19.1 µM and 37 µM, respectively.

Regarding `O=C(c1ccccc1)c1ccc2c(c1)nc1n2C(c2c(Cl)cccc2Cl)SC1` (stereo unspecified), the TGI in the assay on UO-31 renal, in the assay with PC-3 prostate, in the assay with SR leukemia, with A498 renal, in the assay with A549 NSCLC and in the assay on MALME-3M melanoma was more than 100 µM throughout. Moreover, the TGI with RPMI-8226 leukemia, with SW-620 colon, in the assay on ACHN renal and in the assay on HCC-2998 colon was more than 100 µM in each case.

Regarding `Nc1nc(Cl)cc(NCC2(O)CC(CO)C2)n1` (stereo unspecified), the TGI in the assay on UO-31 renal, in the assay with PC-3 prostate, with SR leukemia, in the assay on A498 renal, in the assay with A549 NSCLC and in the assay with MALME-3M melanoma was more than 100 µM throughout. In addition, the TGI in the assay with RPMI-8226 leukemia, in the assay on SW-620 colon, with ACHN renal and in the assay with HCC-2998 colon was more than 100 µM each time.

As for `O=C1Oc2ccccc2C(=O)/C1=C/N1C(=O)N/C(=C\c2ccccc2O)C1=O`, the TGI with UO-31 renal, in the assay with PC-3 prostate, with SR leukemia, in the assay with A498 renal, with A549 NSCLC and with MALME-3M melanoma was more than 100 µM throughout. Besides, the TGI in the assay on RPMI-8226 leukemia, with SW-620 colon, with ACHN renal and with HCC-2998 colon was more than 100 µM in each case.

As for `C=C(C)[C@@]1(O)O[C@H]2C[C@@]3(C)OC(=CC3=O)/C(C)=C\[C@@H]3OC(=O)[C@@]1(C)[C@H]32`, the TGI in the assay with UO-31 renal is 57 µM; in the assay on PC-3 prostate, 78.4 µM; in the assay on SR leukemia it was more than 64.4 µM; in the assay on A549 NSCLC it was more than 93.3 µM; in the assay on MALME-3M melanoma, more than 100 µM; in the assay on RPMI-8226 leukemia, more than 58.1 µM. Further, the TGI is 19.5 µM in the assay with SW-620 colon, more than 77.1 µM in the assay on ACHN renal and 35.1 µM in the assay on HCC-2998 colon.

Take `O=C(O)[C@H]1[C@@H](C2CCCCC2)O[C@@H](C2CCCCC2)O[C@H]1C(F)(F)F`: the TGI is 66.2 µM with UO-31 renal; 32.1 µM with PC-3 prostate; 46.9 µM in the assay with SR leukemia; 35.9 µM in the assay on A498 renal; 42.4 µM with A549 NSCLC; 73.3 µM in the assay with MALME-3M melanoma. Besides, the TGI came out at 45.3 µM in the assay with RPMI-8226 leukemia, 52.8 µM in the assay on SW-620 colon, 32.7 µM with ACHN renal and 38.8 µM in the assay with HCC-2998 colon.

Consider `CCOC(=O)CCCn1nnc(C(=O)OCC)c1C(=O)OCC`, for which the TGI with UO-31 renal, with PC-3 prostate, in the assay with SR leukemia, with A549 NSCLC, in the assay with MALME-3M melanoma and in the assay on SW-620 colon was more than 100 µM in each case. The TGI in the assay on ACHN renal and in the assay with HCC-2998 colon was more than 100 µM in each case.
